Experimental findings from patent publication US11987648B2, “Cyclohexapeptides as selective somatostatin SST5 receptor agonists” (Heptares Therapeutics Limited, priority 2018, dated 2024) are described below.

Structures are written as SMILES. *1 amine or outer side, *2 acyl side, *3 side chain or, on linkers, in order; H or OH if unused. Where a SMILES comes first, the peptide text is derived from it. Side-chain parts run from the residue outwards. [ ]: non-standard residue; d: D form. The star is where a group is joined. Ala(piperidin-4-yl) = O=C([C@H](CC1CCN([*:3])CC1)N[*:1])[*:2]; dTrp(4-OMe) = COc1cccc2[nH]cc(C[C@@H](N)C(=O)O)c12; dTrp(5-Me) = Cc1ccc2[nH]cc(C[C@@H](N)C(=O)O)c2c1; Ala(piperazin-1-yl) = N[C@@H](CN1CCNCC1)C(=O)O; Tyr(Ph) = N[C@@H](Cc1ccc(Oc2ccccc2)cc1)C(=O)O; Phe(3-Br) = N[C@@H](Cc1cccc(Br)c1)C(=O)O; Phe(4-Cl) = N[C@@H](Cc1ccc(Cl)cc1)C(=O)O; Ethylenediamine = C(CN[*:2])N[*:1]; d(hPhe) = N[C@H](CCc1ccccc1)C(=O)O; Hyp = O=C(O)[C@@H]1C[C@@H](O)CN1; hPhe = N[C@@H](CCc1ccccc1)C(=O)O; 3Pal = N[C@@H](Cc1cccnc1)C(=O)O; Cyclohexylmethyl = C1CCC(C*)CC1; Tic = O=C(O)[C@@H]1Cc2ccccc2CN1; Benzyl(4-Cl) = Clc1ccc(C*)cc1; Phg = N[C@H](C(=O)O)c1ccccc1; CO = O=C([*:1])[*:2]; Bn = c1ccc(C*)cc1

One assay concerns the target SST2 (Homo sapiens, UniProt P30874). The assay can be described thus: Hit Hunter cAMP XS+ assay, SST2 activation via Gi (reduction of forskolin-stimulated cAMP). The format is cell-based. To be noted: for Emax: read-out: SST2 (EMax); for EC50: reduction of forskolin-stimulated cAMP, 4-parameter logistic fit, read-out: SST2 pEC50 (converted). In a few lines:
(§1)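 Cells (10,000/well) incubated 30 min at 37 °C with compound under EC80 forskolin ([…] for SST2, 15 μM for SST5). cAMP reduction was detected by enzyme-fragment complementation chemiluminescence after 60 min and 180 min room-temperature reagent steps. Potency and efficacy were both measured.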

In another assay the target is SST5 (Homo sapiens, UniProt P35346). Put plainly: Hit Hunter cAMP XS+ assay, SST5 activation via Gi (reduction of forskolin-stimulated cAMP). The format is cell-based. As to conditions: for Emax: read-out: SST5 (EMax); for EC50: reduction of forskolin-stimulated cAMP, 4-parameter logistic fit, read-out: SST5 pEC50 (converted); for SST5/2 Selectivity: selectivity for SST5 over SST2. In a few lines:
as §1

Sequence of SST2 (P30874 whole entry, the tested form may be a part): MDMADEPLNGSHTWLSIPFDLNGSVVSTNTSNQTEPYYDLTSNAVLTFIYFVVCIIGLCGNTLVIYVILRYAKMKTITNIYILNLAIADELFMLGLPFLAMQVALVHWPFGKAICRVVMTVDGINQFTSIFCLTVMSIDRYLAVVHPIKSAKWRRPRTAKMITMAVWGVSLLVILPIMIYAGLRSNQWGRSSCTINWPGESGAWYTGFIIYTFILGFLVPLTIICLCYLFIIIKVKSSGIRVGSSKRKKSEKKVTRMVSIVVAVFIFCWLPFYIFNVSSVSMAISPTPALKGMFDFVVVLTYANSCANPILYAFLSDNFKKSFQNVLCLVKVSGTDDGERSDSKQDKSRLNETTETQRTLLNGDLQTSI
Sequence of SST5 (P35346 whole entry): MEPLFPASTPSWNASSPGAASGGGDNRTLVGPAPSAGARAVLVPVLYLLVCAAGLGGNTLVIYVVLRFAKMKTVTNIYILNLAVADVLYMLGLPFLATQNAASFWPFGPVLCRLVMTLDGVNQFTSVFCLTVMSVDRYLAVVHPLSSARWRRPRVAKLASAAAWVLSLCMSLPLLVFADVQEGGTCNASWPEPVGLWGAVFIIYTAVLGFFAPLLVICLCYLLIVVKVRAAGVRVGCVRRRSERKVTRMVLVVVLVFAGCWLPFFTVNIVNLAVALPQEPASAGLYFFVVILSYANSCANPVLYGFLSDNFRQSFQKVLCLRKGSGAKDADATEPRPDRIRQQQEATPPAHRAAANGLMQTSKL

Regarding `NCCNC(=O)O[C@@H]1C[C@H]2C(=O)N[C@@H](CCc3ccccc3)C(=O)N[C@H](Cc3c[nH]c4ccccc34)C(=O)N[C@@H](CC3CCNCC3)C(=O)N[C@@H](Cc3ccc(OCC4CCCCC4)cc3)C(=O)N3Cc4ccccc4C[C@H]3C(=O)N2C1` [Example 44] (cyclo([Hyp]([CO-Ethylenediamine])[hPhe][dW][Ala(piperidin-4-yl)]Y(Cyclohexylmethyl)[Tic])), at SST2, the Emax turned out to be 75.3% and the EC50 is 0.794 µM. On SST5, the Emax is 105%, the EC50 was 0.001 µM and the “SST5/2 Selectivity” value came to 823.8.

Consider `COc1cccc2[nH]cc(C[C@H]3NC(=O)[C@H](c4ccccc4)NC(=O)[C@@H]4C[C@@H](OC(=O)NCCN)CN4C(=O)[C@H](Cc4ccccc4)NC(=O)[C@H](Cc4ccc(OCc5ccccc5)cc4)NC(=O)[C@H](CN4CCNCC4)NC3=O)c12` [Example 64] (cyclo(F[Hyp]([CO-Ethylenediamine])[Phg][dTrp(4-OMe)][Ala(piperazin-1-yl)]Y(Bn))), for which, at SST2, the Emax is 100% and the EC50 is 0.1 µM. For the same compound, on SST5, the Emax came to 104%, the EC50 is 0.0158 µM and the “SST5/2 Selectivity” value was determined as 5.5.

As to `NCCNC(=O)O[C@@H]1C[C@H]2C(=O)N[C@@H](c3ccccc3)C(=O)N[C@H](Cc3c[nH]c4ccccc34)C(=O)N[C@@H](CC3CCNCC3)C(=O)N[C@@H](Cc3ccc(OCc4ccc(Cl)cc4)cc3)C(=O)N[C@@H](Cc3ccccc3)C(=O)N2C1` [Example 6] (cyclo(F[Hyp]([CO-Ethylenediamine])[Phg][dW][Ala(piperidin-4-yl)]Y(Benzyl(4-Cl)))), on SST2, the Emax was found to be 97.9% and the EC50 was 0.0501 µM. Moreover, on SST5, the Emax was 97.9%, the EC50 is 0.00126 µM and the “SST5/2 Selectivity” value is on record as 41.9.

On to `NCCNC(=O)O[C@@H]1C[C@H]2C(=O)N[C@H](CCc3ccccc3)C(=O)N[C@H](Cc3c[nH]c4ccccc34)C(=O)N[C@@H](CN3CCNCC3)C(=O)N[C@@H](Cc3ccc(OCc4ccccc4)cc3)C(=O)N[C@@H](Cc3cccnc3)C(=O)N2C1` [Example 16] (cyclo([3Pal][Hyp]([CO-Ethylenediamine])[d(hPhe)][dW][Ala(piperazin-1-yl)]Y(Bn))), for which, at SST2, the Emax is 79.5% and the EC50 is greater than 10 µM. On SST5, the Emax stood at 100%, the EC50 is 0.00398 µM and the “SST5/2 Selectivity” value worked out at 2729.5.

For the compound `Cc1ccc2[nH]cc(C[C@H]3NC(=O)[C@H](c4ccccc4)NC(=O)[C@@H]4C[C@@H](OC(=O)NCCN)CN4C(=O)[C@H](Cc4ccccc4)NC(=O)[C@H](Cc4ccc(OCc5ccccc5)cc4)NC(=O)[C@H](CC4CCNCC4)NC3=O)c2c1` [Example 13] (cyclo(F[Hyp]([CO-Ethylenediamine])[Phg][dTrp(5-Me)][Ala(piperidin-4-yl)]Y(Bn))), on SST2, the Emax was determined as 97.6% and the EC50 is 0.2 µM. At SST5, the Emax stood at 98.7%, the EC50 is 0.00251 µM and the “SST5/2 Selectivity” value is on record as 87.2.

As for `NCCNC(=O)O[C@@H]1C[C@H]2C(=O)N[C@@H](CCc3ccccc3)C(=O)N[C@H](Cc3c[nH]c4ccccc34)C(=O)N[C@@H](CN3CCNCC3)C(=O)N[C@@H](Cc3ccc(OCc4ccccc4)cc3)C(=O)N3CCC[C@H]3C(=O)N2C1` [Example 37] (cyclo([Hyp]([CO-Ethylenediamine])[hPhe][dW][Ala(piperazin-1-yl)]Y(Bn)P)), on SST2, the Emax worked out at 75.8% and the EC50 is 6.31 µM. In addition, on SST5, the Emax was 108%, the EC50 is 0.002 µM and the “SST5/2 Selectivity” value came out at 2927.5.

As for `NCCNC(=O)O[C@@H]1C[C@H]2C(=O)N[C@@H](CCc3ccccc3)C(=O)N[C@@H](Cc3c[nH]c4ccccc34)C(=O)N[C@@H](CC3CCNCC3)C(=O)N[C@@H](Cc3ccc(OCc4ccccc4)cc3)C(=O)N[C@@H](Cc3ccccc3)C(=O)N2C1` [Example 29] (cyclo(F[Hyp]([CO-Ethylenediamine])[hPhe]W[Ala(piperidin-4-yl)]Y(Bn))), on SST2, the Emax is 89.6% and the EC50 is 0.794 µM. Moreover, at SST5, the Emax is 100%, the EC50 is 0.001 µM and the “SST5/2 Selectivity” value worked out at 663.6.

As for `NCCNC(=O)O[C@@H]1C[C@H]2C(=O)N[C@@H](c3ccccc3)C(=O)N[C@H](Cc3c[nH]c4ccccc34)C(=O)N[C@@H](CC3CCNCC3)C(=O)N[C@@H](Cc3ccc(OCc4ccccc4)cc3)C(=O)N[C@@H](Cc3cccc(Br)c3)C(=O)N2C1` [Example 10] (cyclo([Hyp]([CO-Ethylenediamine])[Phg][dW][Ala(piperidin-4-yl)]Y(Bn)[Phe(3-Br)])), at SST2, the Emax was 101% and the EC50 was 0.02 µM. For the same compound, on SST5, the Emax worked out at 98%, the EC50 was 0.000501 µM and the “SST5/2 Selectivity” value is reported as 38.9.

Regarding `NCCNC(=O)O[C@@H]1C[C@H]2C(=O)N[C@@H](CCc3ccccc3)C(=O)N[C@H](Cc3c[nH]c4ccccc34)C(=O)N[C@@H](CC3CCNCC3)C(=O)N[C@@H](Cc3ccc(OCc4ccccc4)cc3)C(=O)N[C@@H](Cc3ccc(Cl)cc3)C(=O)N2C1` [Example 42] (cyclo([Hyp]([CO-Ethylenediamine])[hPhe][dW][Ala(piperidin-4-yl)]Y(Bn)[Phe(4-Cl)])), at SST2, the Emax stood at 99.3% and the EC50 was 0.0126 µM. At SST5, the Emax worked out at 104%, the EC50 is 0.000251 µM and the “SST5/2 Selectivity” value came to 45.1.

In the case of `NCCNC(=O)O[C@@H]1C[C@H]2C(=O)N[C@@H](CCc3ccccc3)C(=O)N[C@H](Cc3c[nH]c4ccccc34)C(=O)N[C@@H](CN3CCNCC3)C(=O)N[C@@H](Cc3ccc(OCc4ccc(Cl)cc4)cc3)C(=O)N[C@@H](Cc3cccnc3)C(=O)N2C1` [Example 59] (cyclo([3Pal][Hyp]([CO-Ethylenediamine])[hPhe][dW][Ala(piperazin-1-yl)]Y(Benzyl(4-Cl)))), at SST2, the Emax was found to be 95.7% and the EC50 was 0.501 µM. At SST5, the maximal effect (Emax) came to 106%, the EC50 was 0.000631 µM and the “SST5/2 Selectivity” value was 738.9.

`NCCNC(=O)O[C@@H]1C[C@H]2C(=O)N[C@@H](CCc3ccccc3)C(=O)N[C@H](Cc3c[nH]c4ccccc34)C(=O)N[C@@H](CN3CCNCC3)C(=O)N[C@@H](Cc3ccc(OCC4CCCCC4)cc3)C(=O)N[C@@H](Cc3cccnc3)C(=O)N2C1` [Example 52] (cyclo([3Pal][Hyp]([CO-Ethylenediamine])[hPhe][dW][Ala(piperazin-1-yl)]Y(Cyclohexylmethyl))): at SST2, the maximal response (Emax) was 96.8% and the EC50 was 0.398 µM. At SST5, the Emax is 107%, the EC50 is 0.000158 µM and the “SST5/2 Selectivity” value was 2108.2.

As for `NCCNC(=O)O[C@@H]1C[C@H]2C(=O)N[C@H](CCc3ccccc3)C(=O)N[C@H](Cc3c[nH]c4ccccc34)C(=O)N[C@@H](CC3CCNCC3)C(=O)N[C@@H](Cc3ccc(OCc4ccccc4)cc3)C(=O)N[C@@H](Cc3ccccc3)C(=O)N2C1` [Example 38] (cyclo(F[Hyp]([CO-Ethylenediamine])[d(hPhe)][dW][Ala(piperidin-4-yl)]Y(Bn))), on SST2, the Emax turned out to be 82.7% and the EC50 is 2.51 µM. Moreover, at SST5, the Emax was 103%, the EC50 was 0.0126 µM and the “SST5/2 Selectivity” value is listed as 171.5.

Turning to `NCCNC(=O)O[C@@H]1C[C@H]2C(=O)N[C@@H](c3ccccc3)C(=O)N[C@H](Cc3c[nH]c4ccccc34)C(=O)N[C@@H](CC3CCNCC3)C(=O)N[C@@H](Cc3ccc(OCc4ccccc4)cc3)C(=O)N[C@@H](Cc3ccc(Cl)cc3)C(=O)N2C1` [Example 8] (cyclo([Hyp]([CO-Ethylenediamine])[Phg][dW][Ala(piperidin-4-yl)]Y(Bn)[Phe(4-Cl)])), on SST2, the Emax was found to be 101% and the EC50 was 0.0316 µM. Further, at SST5, the Emax worked out at 102%, the EC50 is 0.00126 µM and the “SST5/2 Selectivity” value is listed as 22.7.

As for `NCCNC(=O)O[C@@H]1C[C@H]2C(=O)N[C@@H](CCc3ccccc3)C(=O)N[C@H](Cc3c[nH]c4ccccc34)C(=O)N[C@@H](CN3CCNCC3)C(=O)N[C@@H](Cc3ccc(OCc4ccccc4)cc3)C(=O)N3Cc4ccccc4C[C@H]3C(=O)N2C1` [Example 26] (cyclo([Hyp]([CO-Ethylenediamine])[hPhe][dW][Ala(piperazin-1-yl)]Y(Bn)[Tic])), at SST2, the Emax turned out to be 66.6% and the EC50 is 0.501 µM. Moreover, at SST5, the Emax was determined as 99.1%, the EC50 is 0.000126 µM and the “SST5/2 Selectivity” value came out at 4067.3.

For `NCCNC(=O)O[C@@H]1C[C@H]2C(=O)N[C@H](CCc3ccccc3)C(=O)N[C@H](Cc3c[nH]c4ccccc34)C(=O)N[C@@H](CC3CCNCC3)C(=O)N[C@@H](Cc3ccc(OCc4ccccc4)cc3)C(=O)N[C@@H](Cc3cccnc3)C(=O)N2C1` [Example 15] (cyclo([3Pal][Hyp]([CO-Ethylenediamine])[d(hPhe)][dW][Ala(piperidin-4-yl)]Y(Bn))), on SST2, the Emax is 55.5% and the EC50 was greater than 10 µM. In addition, at SST5, the Emax was determined as 101%, the EC50 was 0.02 µM and the “SST5/2 Selectivity” value is on record as 531.3.

As to `NCCNC(=O)O[C@@H]1C[C@H]2C(=O)N[C@@H](CCc3ccccc3)C(=O)N[C@H](Cc3c[nH]c4ccccc34)C(=O)N[C@@H](CC3CCNCC3)C(=O)N[C@@H](Cc3ccc(Oc4ccccc4)cc3)C(=O)N[C@@H](Cc3cccnc3)C(=O)N2C1` [Example 67] (cyclo([3Pal][Hyp]([CO-Ethylenediamine])[hPhe][dW][Ala(piperidin-4-yl)][Tyr(Ph)])), at SST2, the Emax is 98.3% and the EC50 is 0.398 µM. At SST5, the Emax is 104%, the EC50 is 0.0158 µM and the “SST5/2 Selectivity” value was 25.7.

A word on the Emax: it is the size of the effect at its maximum, as opposed to the concentration needed.
